Where “and” joins values, the source holds several entries; their conditions need not be identical. Equal entries are not always repeated. Toxic doses and inconclusive results are not listed. Square brackets hold non-standard residues; d marks the D form. Peptide text beside a SMILES is read from it. * marks the point of attachment. Cbz = O=C(OCc1ccccc1)*; Nva = CCC[CH](N)C(=O)O
Test system: P388 leukemia ip, CD2F1 mice, survival T/C
Assay: NCI In Vivo Anticancer Drug Screen. Data for tumor model P388 Leukemia (intraperitoneal) in CD2F1 (CDF1) mice
Settings: endpoint: median survival time, higher = longer survival
Outline: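 Mice carrying the transplanted tumor received test compound or vehicle. Survival was recorded in each group, and the value is the treated-group measurement divided by that of the vehicle-treated control group.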

[1] = dose: 50.0 mg/kg/injection, schedule: Q01DX009 (ip), vehicle: saline
[2] = dose: 100.0 mg/kg/injection, schedule: Q01DX009 (ip), vehicle: saline
[3] = dose: 200.0 mg/kg/injection, schedule: Q01DX009 (ip), vehicle: saline
[4] = dose: 50.0 mg/kg/injection, schedule: Q01DX009 (ip), vehicle: saline with Tween-80
[5] = dose: 100.0 mg/kg/injection, schedule: Q01DX009 (ip), vehicle: saline with Tween-80
[6] = dose: 200.0 mg/kg/injection, schedule: Q01DX009 (ip), vehicle: saline with Tween-80
[7] = dose: 60.0 mg/kg/injection, schedule: Q01DX005 (ip), vehicle: saline with Tween-80
[8] = dose: 120.0 mg/kg/injection, schedule: Q01DX005 (ip), vehicle: saline with Tween-80
[9] = dose: 240.0 mg/kg/injection, schedule: Q01DX005 (ip), vehicle: saline with Tween-80
[10] = dose: 50.0 mg/kg/injection, schedule: Q01DX005 (ip), vehicle: saline with Tween-80
[11] = dose: 100.0 mg/kg/injection, schedule: Q01DX005 (ip), vehicle: saline with Tween-80
[12] = dose: 200.0 mg/kg/injection, schedule: Q01DX005 (ip), vehicle: saline with Tween-80
[13] = dose: 100.0 mg/kg/injection, schedule: Q01DX001 (ip), vehicle: Klucel (hydroxypropylcellulose) (HPC)
[14] = dose: 200.0 mg/kg/injection, schedule: Q01DX001 (ip), vehicle: Klucel (hydroxypropylcellulose) (HPC)

SMILES: O=C1CCC2=C3C4CCCC5OC6CC(=O)CCC6=C(C6CCCC(OC2C1)C36)C54 (stereo not drawn)
- T/C [1]: 96 % of control
- T/C [2]: 100 % of control
- T/C [3]: 96 % of control
- T/C (dose: 400.0 mg/kg/injection, schedule: Q01DX009 (ip), vehicle: saline): 100 % of control

SMILES: NC(Cc1ccccc1Cl)c1nn[nH]n1 (stereo not drawn)
- T/C (dose: 25.0 mg/kg/injection, schedule: Q04DX002 (ip), vehicle: saline with Tween-80): 99 % of control and 93 % of control
- T/C (dose: 50.0 mg/kg/injection, schedule: Q04DX002 (ip), vehicle: saline with Tween-80): 107 % of control and 95 % of control and 96 % of control
- T/C (dose: 100.0 mg/kg/injection, schedule: Q04DX002 (ip), vehicle: saline with Tween-80): 100 % of control
- T/C (dose: 200.0 mg/kg/injection, schedule: Q04DX002 (ip), vehicle: saline with Tween-80): 98 % of control and 100 % of control

SMILES: CCSc1ccc(C(=O)C2(C)Cc3ccccc3CN2)cc1 (stereo not drawn)
- T/C (dose: 100.0 mg/kg/injection, schedule: Q01DX001 (ip), vehicle: saline with Tween-80): 100 % of control
- T/C (dose: 200.0 mg/kg/injection, schedule: Q01DX001 (ip), vehicle: saline with Tween-80): 99 % of control
- T/C (dose: 400.0 mg/kg/injection, schedule: Q01DX001 (ip), vehicle: saline with Tween-80): 98 % of control

SMILES: CCOC(=O)NCCCBr
- T/C [4]: 105 % of control
- T/C [5]: 99 % of control
- T/C [6]: 107 % of control

SMILES: Cc1cccc(/C=N\N=C\c2cccc(C)n2)n1
- T/C [5]: 100 % of control
- T/C [6]: 100 % of control

SMILES: Cc1c(NC(=O)C(=O)O)ccc2c(=O)cc(C(=O)O)[nH]c12
- T/C (dose: 50.0 mg/kg/injection, schedule: Q01DX009 (ip), vehicle: Klucel (hydroxypropylcellulose) (HPC)): 102 % of control and 118 % of control
- T/C (dose: 100.0 mg/kg/injection, schedule: Q01DX009 (ip), vehicle: Klucel (hydroxypropylcellulose) (HPC)): 109 % of control and 117 % of control
- T/C (dose: 200.0 mg/kg/injection, schedule: Q01DX009 (ip), vehicle: Klucel (hydroxypropylcellulose) (HPC)): 111 % of control and 124 % of control

SMILES: CSc1nc(NC2OCC(OC(C)=O)C(OC(C)=O)C2OC(C)=O)c(N=C(C)C(C)=O)c(=O)[nH]1 (stereo not drawn)
- T/C [7]: 95 % of control
- T/C [8]: 108 % of control
- T/C [9]: 95 % of control

SMILES: COC(=O)CCC(=O)N(C)CCc1c[nH]c2ccccc12
- T/C [5]: 90 % of control
- T/C [6]: 90 % of control
- T/C (dose: 400.0 mg/kg/injection, schedule: Q01DX009 (ip), vehicle: saline with Tween-80): 90 % of control

SMILES: CCCC(NC(=O)C(Cc1ccccc1)NC(=O)OCc1ccccc1)C(=O)O (stereo not drawn) (Cbz-Phe-[Nva]-OH; configuration not given here)
- T/C [10]: 104 % of control
- T/C [11]: 101 % of control
- T/C [12]: 98 % of control

SMILES: Cc1ccc(S(=O)(=O)N/N=C/c2c(Br)nc3n2CCS3)cc1
- T/C [13]: 94 % of control
- T/C [14]: 89 % of control
- T/C (dose: 400.0 mg/kg/injection, schedule: Q01DX001 (ip), vehicle: Klucel (hydroxypropylcellulose) (HPC)): 92 % of control

SMILES: COc1cc(OC)c(OC)cc1/C=C\c1nccc2ccccc12
- T/C [4]: 99 % of control
- T/C [5]: 96 % of control
- T/C [6]: 96 % of control

SMILES: C/C=C/C[P+](Cc1cccc(C)c1)(c1ccccc1)c1ccccc1
- T/C (dose: 0.78 mg/kg/injection, schedule: Q01DX009 (ip), vehicle: saline): 101 % of control
- T/C (dose: 1.56 mg/kg/injection, schedule: Q01DX009 (ip), vehicle: saline): 95 % of control
- T/C (dose: 3.13 mg/kg/injection, schedule: Q01DX009 (ip), vehicle: saline): 111 % of control

SMILES: Oc1cc2c(cc1C(c1ccc3c(c1)OCO3)N1CCCCC1)OCO2 (stereo not drawn)
- T/C [7]: 119 % of control
- T/C [8]: 118 % of control
- T/C [9]: 120 % of control

SMILES: Cc1cc(=O)c2ccc(N(C)C)cc2[nH]1
- T/C [10]: 95 % of control
- T/C [11]: 96 % of control
- T/C [12]: 101 % of control

SMILES: Cn1cnc([N+](=O)[O-])c1Sc1ncccn1
- T/C (dose: 25.0 mg/kg/injection, schedule: Q01DX009 (ip), vehicle: saline with Tween-80): 106 % of control
- T/C (dose: 25.0 mg/kg/injection, schedule: Q01DX009 (ip), vehicle: saline): 98 % of control
- T/C [4]: 98 % of control
- T/C [1]: 104 % of control and 108 % of control
- T/C [5]: 100 % of control
- T/C [2]: 108 % of control and 112 % of control
- T/C [6]: 106 % of control
- T/C [3]: 114 % of control and 122 % of control

SMILES: CNC(=O)OCc1c(COC(=O)NC)c(-c2ccc(Sc3ccccc3)cc2)n(C)c1C
- T/C (dose: 12.5 mg/kg/injection, schedule: Q01DX009 (ip), vehicle: distilled water + Tween-80): 154 % of control
- T/C (dose: 25.0 mg/kg/injection, schedule: Q01DX009 (ip), vehicle: distilled water + Tween-80): 152 % of control
- T/C (dose: 50.0 mg/kg/injection, schedule: Q01DX009 (ip), vehicle: distilled water + Tween-80): 160 % of control and 162 % of control
- T/C (dose: 100.0 mg/kg/injection, schedule: Q01DX009 (ip), vehicle: distilled water + Tween-80): 171 % of control and 184 % of control
- T/C (dose: 200.0 mg/kg/injection, schedule: Q01DX009 (ip), vehicle: distilled water + Tween-80): 108 % of control

SMILES: Cc1c2c(cc3c4ccccc4n(C)c13)C(=O)NC2=O
- T/C [10]: 91 % of control
- T/C [11]: 90 % of control

SMILES: O=C(O)CSC(=S)CCCCCCCCCCC(=S)SCC(=O)O
- T/C (dose: 12.5 mg/kg/injection, schedule: Q01DX005 (ip), vehicle: saline with Tween-80): 111 % of control
- T/C (dose: 25.0 mg/kg/injection, schedule: Q01DX005 (ip), vehicle: saline with Tween-80): 109 % of control
- T/C [10]: 116 % of control and 118 % of control

SMILES: CC(=O)OC1C=CC2OC2(COC(=O)c2ccccc2)C1OC(C)=O (stereo not drawn)
- T/C (dose: 2.5 mg/kg/injection, schedule: Q01DX009 (ip), vehicle: Klucel (hydroxypropylcellulose) (HPC)): 87 % of control
- T/C (dose: 5.0 mg/kg/injection, schedule: Q01DX009 (ip), vehicle: Klucel (hydroxypropylcellulose) (HPC)): 99 % of control
- T/C (dose: 10.0 mg/kg/injection, schedule: Q01DX009 (ip), vehicle: Klucel (hydroxypropylcellulose) (HPC)): 92 % of control
- T/C (dose: 28.75 mg/kg/injection, schedule: Q01DX005 (ip), vehicle: saline + Tween-80 + alcohol): 100 % of control
- T/C (dose: 57.5 mg/kg/injection, schedule: Q01DX005 (ip), vehicle: saline + Tween-80 + alcohol): 102 % of control
- T/C (dose: 115.0 mg/kg/injection, schedule: Q01DX005 (ip), vehicle: saline + Tween-80 + alcohol): 100 % of control
- T/C (dose: 230.0 mg/kg/injection, schedule: Q01DX005 (ip), vehicle: saline + Tween-80 + alcohol): 100 % of control

SMILES: CN(CN(C)N=Nc1ccc(Cl)cc1)CN(C)N=Nc1ccc(Cl)cc1
- T/C (dose: 60.0 mg/kg/injection, schedule: Q01DX005 (ip), vehicle: Klucel (hydroxypropylcellulose) (HPC)): 104 % of control
- T/C (dose: 120.0 mg/kg/injection, schedule: Q01DX005 (ip), vehicle: Klucel (hydroxypropylcellulose) (HPC)): 110 % of control
- T/C (dose: 240.0 mg/kg/injection, schedule: Q01DX005 (ip), vehicle: Klucel (hydroxypropylcellulose) (HPC)): 110 % of control

SMILES: Cn1nnnc1-c1cccc(F)c1
- T/C (dose: 50.0 mg/kg/injection, schedule: Q01DX001 (ip), vehicle: Klucel (hydroxypropylcellulose) (HPC)): 101 % of control
- T/C [13]: 102 % of control
- T/C [14]: 104 % of control

SMILES: CNC(=O)O[C@H]1CC[C@@]2(C)C(=CC[C@H]3[C@@H]4CC[C@H]([C@H](C)CCCC(C)C)[C@@]4(C)CC[C@@H]32)C1
- T/C [10]: 100 % of control
- T/C [11]: 96 % of control
- T/C [12]: 100 % of control

SMILES: CCN(CC)CCC(=O)Nc1cccc2c1C(=O)c1c(c(O)c3ccccc3c1O)C2=O
- T/C (dose: 6.25 mg/kg/injection, schedule: Q04DX003 (ip), vehicle: Klucel (hydroxypropylcellulose) (HPC)): 100 % of control
- T/C (dose: 12.5 mg/kg/injection, schedule: Q04DX003 (ip), vehicle: Klucel (hydroxypropylcellulose) (HPC)): 100 % of control
- T/C (dose: 25.0 mg/kg/injection, schedule: Q04DX003 (ip), vehicle: Klucel (hydroxypropylcellulose) (HPC)): 104 % of control
- T/C (dose: 25.0 mg/kg/injection, schedule: Q04DX003 (ip), vehicle: saline): 98 % of control
- T/C (dose: 50.0 mg/kg/injection, schedule: Q04DX003 (ip), vehicle: Klucel (hydroxypropylcellulose) (HPC)): 100 % of control
- T/C (dose: 50.0 mg/kg/injection, schedule: Q04DX003 (ip), vehicle: saline): 92 % of control
- T/C (dose: 100.0 mg/kg/injection, schedule: Q04DX003 (ip), vehicle: Klucel (hydroxypropylcellulose) (HPC)): 106 % of control
- T/C (dose: 100.0 mg/kg/injection, schedule: Q04DX003 (ip), vehicle: saline): 108 % of control
- T/C (dose: 200.0 mg/kg/injection, schedule: Q04DX003 (ip), vehicle: saline): 100 % of control

SMILES: CNCCCc1cc(-c2ccc([N+](=O)[O-])cc2)n[nH]1
- T/C (dose: 100.0 mg/kg/injection, schedule: Q04DX002 (ip), vehicle: Klucel (hydroxypropylcellulose) (HPC)): 100 % of control
- T/C (dose: 200.0 mg/kg/injection, schedule: Q04DX002 (ip), vehicle: Klucel (hydroxypropylcellulose) (HPC)): 100 % of control

From PubChem BioAssay AID330 (DTP/NCI, 2004)
